# Measured values from ChEMBL document CHEMBL1140912, “Extra binding region induced by non-zinc chelating inhibitors into the S1' subsite of matrix metalloproteinase 8 (MMP-8)” (J Med Chem, 2009).
# Columns and labels:
# Interstitial collagenase = target: T1, Interstitial collagenase (Homo sapiens, UniProt P03956); experiment: Inhibition of human recombinant MMP1
# T1 sequence (P03956 whole entry): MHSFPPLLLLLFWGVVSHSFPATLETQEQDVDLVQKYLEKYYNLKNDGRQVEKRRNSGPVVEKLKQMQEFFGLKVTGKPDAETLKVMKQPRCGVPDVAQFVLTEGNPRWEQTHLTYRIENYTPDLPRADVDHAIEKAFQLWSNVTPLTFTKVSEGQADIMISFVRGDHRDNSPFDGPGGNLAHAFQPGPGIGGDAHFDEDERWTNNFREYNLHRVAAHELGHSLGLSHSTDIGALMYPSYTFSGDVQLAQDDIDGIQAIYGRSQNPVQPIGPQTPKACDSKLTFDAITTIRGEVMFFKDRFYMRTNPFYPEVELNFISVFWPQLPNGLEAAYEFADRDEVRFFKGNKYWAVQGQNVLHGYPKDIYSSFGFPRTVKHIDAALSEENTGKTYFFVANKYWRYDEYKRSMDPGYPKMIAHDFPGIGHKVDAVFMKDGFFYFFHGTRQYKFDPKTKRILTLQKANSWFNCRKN
# [1] = target: 72 kDa type IV collagenase (Homo sapiens, UniProt P08253); experiment: Inhibition of human recombinant MMP2
# Stromelysin-1 = Stromelysin-1 (Homo sapiens, UniProt P08254); experiment: Inhibition of human recombinant MMP3
# Matrilysin = target: T2, Matrilysin (Homo sapiens, UniProt P09237); experiment: Inhibition of human recombinant MMP7
# T2 sequence (P09237 whole entry): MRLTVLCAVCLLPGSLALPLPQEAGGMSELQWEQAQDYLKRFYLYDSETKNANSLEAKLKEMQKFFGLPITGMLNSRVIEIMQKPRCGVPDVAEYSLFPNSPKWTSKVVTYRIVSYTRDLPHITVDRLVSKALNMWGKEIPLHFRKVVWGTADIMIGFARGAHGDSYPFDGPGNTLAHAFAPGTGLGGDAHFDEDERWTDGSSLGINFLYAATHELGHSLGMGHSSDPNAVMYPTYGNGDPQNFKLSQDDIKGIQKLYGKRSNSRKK
# [2] = target: Matrix metalloproteinase-9 (Homo sapiens, UniProt P14780); experiment: Inhibition of human recombinant MMP9
# [3] = target: Macrophage metalloelastase (Homo sapiens, UniProt P39900); experiment: Inhibition of human recombinant MMP12
# Collagenase 3 = Collagenase 3 (Homo sapiens, UniProt P45452); experiment: Inhibition of human recombinant MMP13
# [4] = target: Matrix metalloproteinase-14 (Homo sapiens, UniProt P50281); experiment: Inhibition of human recombinant MMP14
# Chain of Matrix metalloproteinase-9 (P14780 whole entry): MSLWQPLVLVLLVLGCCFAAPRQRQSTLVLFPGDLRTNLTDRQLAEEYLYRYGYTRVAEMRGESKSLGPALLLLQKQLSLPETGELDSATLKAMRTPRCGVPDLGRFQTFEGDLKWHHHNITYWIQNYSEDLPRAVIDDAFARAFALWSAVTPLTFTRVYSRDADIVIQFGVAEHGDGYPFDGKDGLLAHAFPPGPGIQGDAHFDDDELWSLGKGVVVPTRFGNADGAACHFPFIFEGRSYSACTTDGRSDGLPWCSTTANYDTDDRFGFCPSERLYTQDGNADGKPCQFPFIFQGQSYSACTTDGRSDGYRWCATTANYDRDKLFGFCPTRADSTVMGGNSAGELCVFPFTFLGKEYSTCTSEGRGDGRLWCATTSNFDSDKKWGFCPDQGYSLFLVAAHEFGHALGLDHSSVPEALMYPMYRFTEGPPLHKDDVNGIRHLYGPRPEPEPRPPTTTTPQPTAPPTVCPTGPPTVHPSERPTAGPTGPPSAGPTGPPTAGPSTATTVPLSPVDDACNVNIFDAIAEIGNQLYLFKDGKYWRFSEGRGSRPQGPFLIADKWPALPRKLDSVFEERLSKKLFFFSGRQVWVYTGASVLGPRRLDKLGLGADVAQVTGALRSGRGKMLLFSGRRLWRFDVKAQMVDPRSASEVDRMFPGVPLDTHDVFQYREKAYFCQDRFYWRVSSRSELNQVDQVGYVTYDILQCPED
# Chain of Stromelysin-1 (P08254 whole entry): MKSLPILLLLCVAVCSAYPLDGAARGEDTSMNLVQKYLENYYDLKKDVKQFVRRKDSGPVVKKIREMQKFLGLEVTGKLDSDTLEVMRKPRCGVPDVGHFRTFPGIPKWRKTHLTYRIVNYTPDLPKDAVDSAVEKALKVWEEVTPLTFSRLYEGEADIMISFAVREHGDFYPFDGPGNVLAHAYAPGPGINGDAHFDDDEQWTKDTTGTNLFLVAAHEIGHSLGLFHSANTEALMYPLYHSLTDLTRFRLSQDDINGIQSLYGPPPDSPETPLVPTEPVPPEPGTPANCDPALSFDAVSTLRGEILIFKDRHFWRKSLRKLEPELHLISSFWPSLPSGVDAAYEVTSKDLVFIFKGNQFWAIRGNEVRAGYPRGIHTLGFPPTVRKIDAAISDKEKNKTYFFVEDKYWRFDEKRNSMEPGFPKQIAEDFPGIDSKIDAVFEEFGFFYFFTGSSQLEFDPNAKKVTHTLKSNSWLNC
# Chain of 72 kDa type IV collagenase (P08253 whole entry): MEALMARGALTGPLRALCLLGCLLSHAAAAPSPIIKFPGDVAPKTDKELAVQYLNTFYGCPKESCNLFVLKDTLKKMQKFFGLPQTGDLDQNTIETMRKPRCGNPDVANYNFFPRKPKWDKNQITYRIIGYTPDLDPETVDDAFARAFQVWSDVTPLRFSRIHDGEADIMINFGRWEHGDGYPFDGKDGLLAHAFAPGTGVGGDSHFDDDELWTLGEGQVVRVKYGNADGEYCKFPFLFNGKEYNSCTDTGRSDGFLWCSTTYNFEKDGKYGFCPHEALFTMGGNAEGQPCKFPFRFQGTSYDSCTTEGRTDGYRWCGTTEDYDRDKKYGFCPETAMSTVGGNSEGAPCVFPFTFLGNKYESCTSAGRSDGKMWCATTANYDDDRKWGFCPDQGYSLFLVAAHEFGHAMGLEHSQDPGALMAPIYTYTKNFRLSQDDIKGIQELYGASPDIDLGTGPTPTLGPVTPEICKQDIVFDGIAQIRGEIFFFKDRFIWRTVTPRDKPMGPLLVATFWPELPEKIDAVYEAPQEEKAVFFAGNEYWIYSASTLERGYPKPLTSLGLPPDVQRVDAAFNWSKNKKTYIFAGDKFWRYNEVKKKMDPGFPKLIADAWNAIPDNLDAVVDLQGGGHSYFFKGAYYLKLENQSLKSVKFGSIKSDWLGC
# Chain of Macrophage metalloelastase (P39900 whole entry): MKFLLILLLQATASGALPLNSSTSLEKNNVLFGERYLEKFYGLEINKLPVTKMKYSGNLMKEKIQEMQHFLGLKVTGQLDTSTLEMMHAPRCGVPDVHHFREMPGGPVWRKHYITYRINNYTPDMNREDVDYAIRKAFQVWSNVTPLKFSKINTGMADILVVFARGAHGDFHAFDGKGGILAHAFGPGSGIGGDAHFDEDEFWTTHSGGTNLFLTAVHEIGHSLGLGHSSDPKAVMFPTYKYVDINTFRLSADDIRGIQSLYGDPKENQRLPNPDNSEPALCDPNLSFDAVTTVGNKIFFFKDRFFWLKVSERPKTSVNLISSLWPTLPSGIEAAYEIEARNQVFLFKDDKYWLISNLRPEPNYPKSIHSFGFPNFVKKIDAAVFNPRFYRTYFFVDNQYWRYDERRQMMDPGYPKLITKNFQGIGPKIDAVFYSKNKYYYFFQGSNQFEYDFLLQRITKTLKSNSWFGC
smiles,measurement,setting,value
NC(=O)CC1CCCc2sc3nc(C(=O)NCc4ccc5c(c4)NC(=O)CO5)[nH]c(=O)c3c21 (racemic),IC50,Interstitial collagenase,> 10 µM
same,IC50,[1],> 10 µM
same,IC50,Stromelysin-1,> 2.5 µM
same,IC50,Matrilysin,> 10 µM
same,IC50,[2],> 10 µM
same,IC50,[3],> 10 µM
same,IC50,Collagenase 3,< 0.025 µM
same,IC50,[4],> 10 µM
